Measured values: patent US10329334B2 (SANOFI, priority 2015, dated 2019)
Starred links: 1 amine or outer side, 2 acyl side, 3 side chain; linkers in the order of their positions; H or OH if unused. Positions of bridges follow the written chain, without caps; N, C: chain ends. Non-standard residues stand in square brackets, D forms with d. Residues, ends and D or L forms follow the SMILES beside them. *: point of attachment. X1 = O=C([C@@H]1CCNc2c(N[*:1])cc3cc(O)c(O)cc3[n+]21)[*:2]; X4 = O=C([C@@H]1CCN=C2C(N[*:1])=Cc3cc(O)c(O)cc3N21)[*:2]; dOrn(N5-OH,N5-CHO) = N[C@H](CCCN(O)C=O)C(=O)O; Butanoyl(2-oxo,4-COOH) = O=C(O)CCC(=O)C(=O)*; X5 = O=CN(O)CCC[C@H](N[*:1])C(=O)[*:2]; d(aThr) = C[C@@H](O)[C@@H](N)C(=O)O; Suc = O=C(CCC(=O)[*:2])[*:1]; X2 = O=C1[C@@H](N*)CCCN1[O-]; Orn = NCCC[C@H](N)C(=O)O

What was measured:
Type in all cases: binding
[1] = biological target: T1, human lipocalin 2 (hNGAL) mutein SEQ ID NO: 35 (Homo sapiens, UniProt P80188, A60T/C107S/D97H/K145I/K154W/K93R/L123T/L56V/L90R/N85Q/Q48H/Q69G/R101D/R92I/S147R/S88D/T74A/W99Y/Y126Q/Y152I/Y72N); test: SPR (Biacore T200), mutein SEQ ID NO: 35; conditions: for specificity and crossreactivity (binding): 2 μM for all analytes
T1 construct: made in house; host or cells: E. coli
T1 sequence (P80188 21-198 with the stated changes): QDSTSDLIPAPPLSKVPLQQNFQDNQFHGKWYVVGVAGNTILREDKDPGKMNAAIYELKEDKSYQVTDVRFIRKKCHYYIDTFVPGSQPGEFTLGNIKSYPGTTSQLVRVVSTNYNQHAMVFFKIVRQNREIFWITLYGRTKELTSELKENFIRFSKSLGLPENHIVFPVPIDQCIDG
Method: (§4) In a Surface Plasmon Resonance (SPR) based assay a Biacore T200 instrument (GE Healthcare) was used to measure the binding affinity of muteins to pyoverdine I succinyl, -succinamid, -α-ketoglutaryl with complexed iron ion or to pyoverdine II succinyl, -succinamid, -α-ketoglutaryl with complexed iron ion or to pyoverdine III succinyl, -succinamid, -α-ketoglutaryl with complexed iron ion. Muteins selected for binding to pyoverdines and negative control (SEQ ID NO: 64) were biotinylated for 2 h at room temperature applying an appropriate excess of EZ-Link NHS-PEG4-Biotin (Thermo, Cat#21329) followed by separation of non-reacted Biotin using a Zeba Spin Desalting Plate (Thermo, Cat#21329) according to the manufactures instructions.

[2] = biological target: T2, human lipocalin 2 (hNGAL) mutein SEQ ID NO: 43 (Homo sapiens, UniProt P80188, A60L/C107S/D97K/I61A/K154W/K93Q/L123Q/L56E/L90R/N116L/Q48H/Q69M/R101V/S147V/S88E/W99D/Y120D/Y126E/Y72M); test: SPR (Biacore T200), mutein SEQ ID NO: 43; conditions: 25° C.
T2 construct: made in house; host or cells: E. coli
T2 sequence (P80188 21-198 with the stated changes): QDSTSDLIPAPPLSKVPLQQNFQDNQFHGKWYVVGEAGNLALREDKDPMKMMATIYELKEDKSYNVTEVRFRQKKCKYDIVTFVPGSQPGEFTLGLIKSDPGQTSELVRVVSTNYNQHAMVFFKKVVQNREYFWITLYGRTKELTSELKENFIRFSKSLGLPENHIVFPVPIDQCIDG
Method: (§1) In a Surface Plasmon Resonance (SPR) based assay a Biacore T200 instrument (GE Healthcare) was used to measure the binding affinity of muteins to pyoverdine I succinyl, -succinamid, -α-ketoglutaryl with complexed iron ion or to pyoverdine II succinyl, -succinamid, -α-ketoglutaryl with complexed iron ion or to pyoverdine III succinyl, -succinamid, -α-ketoglutaryl with complexed iron ion. Muteins selected for binding to pyoverdines and negative control (SEQ ID NO: 64) were biotinylated for 2 h at room temperature applying an appropriate excess of EZ-Link NHS-PEG4-Biotin (Thermo, […]) followed by separation of non-reacted Biotin using a Zeba Spin Desalting Plate (Thermo, […]) according to the manufactures instructions.
(§2) In the SPR affinity assay, biotinylated muteins and negative control were captured on a sensor chip CAP using the Biotin CAPture Kit (GE Healthcare): Sensor Chip CAP is pre-immobilized with an ssDNA oligo. Undiluted Biotin CAPture Reagent (streptavidin conjugated with the complementary ss-DNA oligo) was applied at a flow rate of 2 μl/min for 300 s. Subsequently, 1 μg/ml to 100 μg/mL of biotinylated muteins or negative control were applied for 300 s at a flow rate of 5 μl/min. The reference channel was loaded with Biotin CAPture Reagent only.
(§3) Applying a flow rate of 30 μl/min, a single cycle or multi cycle kinetics approach was used with a sample contact time of 120-180 s and a dissociation time of 900-2400 s. […] After ligand immobilization, for analysis using single cycle kinetics all 4-5 concentrations of Pvd were applied consecutively in ascending order before the dissociation was monitored. For analysis using multi cycle kinetics 4 dilutions of Pvd were applied, each followed a dissociation phase. All measurements were performed at 25° C. […] Data were evaluated with Biacore T200 Evaluation software (V 1.0). Double referencing was used. A 1:1 Binding model was used to fit the raw data.

[3] = biological target: T3, human lipocalin 2 (hNGAL) mutein SEQ ID NO: 44 (Homo sapiens, UniProt P80188, A60L/C107S/D97K/I61T/K154W/K93R/L123Q/L56E/L90R/N116V/Q48H/Q69M/R101V/S147V/S88E/W99D/Y120D/Y126E/Y72M); test: SPR (Biacore T200), mutein SEQ ID NO: 44; conditions: 25° C.
T3 construct: made in house; host or cells: E. coli
T3 sequence (P80188 21-198 with the stated changes): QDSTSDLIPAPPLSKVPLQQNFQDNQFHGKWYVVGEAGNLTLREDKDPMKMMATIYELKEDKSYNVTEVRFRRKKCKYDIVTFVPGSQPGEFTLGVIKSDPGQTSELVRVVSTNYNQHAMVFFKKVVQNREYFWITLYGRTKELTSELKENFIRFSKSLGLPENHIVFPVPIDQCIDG
Method: as §1, §2, §3

[4] = biological target: T4, human lipocalin 2 (hNGAL) mutein SEQ ID NO: 45 (Homo sapiens, UniProt P80188, A60L/C107S/D97K/I61A/K154W/K93H/L123Q/L56E/L90R/N116L/Q48H/Q69M/R101V/S147V/S88E/W99D/Y120D/Y126E/Y72M); test: SPR (Biacore T200), mutein SEQ ID NO: 45; conditions: 25° C.
T4 construct: made in house; host or cells: E. coli
T4 sequence (P80188 21-198 with the stated changes): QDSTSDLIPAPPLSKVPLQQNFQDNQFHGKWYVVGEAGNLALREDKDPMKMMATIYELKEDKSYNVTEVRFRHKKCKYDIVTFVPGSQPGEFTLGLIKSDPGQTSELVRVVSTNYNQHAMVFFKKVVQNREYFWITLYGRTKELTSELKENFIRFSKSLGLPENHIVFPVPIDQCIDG
Method: as §1, §2, §3

[5] = biological target: T5, human lipocalin 2 (hNGAL) mutein SEQ ID NO: 46 (G-N-I-K, positions 95-98, deleted) (Homo sapiens, UniProt P80188, A60L/C107S/D97Q/DEL115-118/I61A/K154W/K93Y/L123Q/L56E/L90R/Q48H/Q69K/R101V/S147V/S88E/W99D/Y120E/Y126E/Y152F/Y72M); test: SPR (Biacore T200), mutein SEQ ID NO: 46; conditions: 25° C.
T5 construct: made in house; host or cells: E. coli
T5 sequence (P80188 with tags, fused parts or gaps with the stated changes): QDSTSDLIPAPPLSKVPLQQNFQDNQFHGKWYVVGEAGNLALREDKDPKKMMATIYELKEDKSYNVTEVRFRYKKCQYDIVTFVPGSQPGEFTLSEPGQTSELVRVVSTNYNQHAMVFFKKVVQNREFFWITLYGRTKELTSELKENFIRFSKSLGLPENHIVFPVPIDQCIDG
Method: as §1, §2, §3

[6] = biological target: T6, human lipocalin 2 (hNGAL) mutein SEQ ID NO: 47 (Homo sapiens, UniProt P80188, A60L/C107S/D97K/I61A/K154W/K93H/L123Q/L56E/L62R/L90R/N116L/Q48H/Q69M/R101V/S125P/S147V/S88E/W99D/Y120D/Y126E/Y72M); test: SPR (Biacore T200), mutein SEQ ID NO: 47; conditions: 25° C.
T6 construct: made in house; host or cells: E. coli
T6 sequence (P80188 21-198 with the stated changes): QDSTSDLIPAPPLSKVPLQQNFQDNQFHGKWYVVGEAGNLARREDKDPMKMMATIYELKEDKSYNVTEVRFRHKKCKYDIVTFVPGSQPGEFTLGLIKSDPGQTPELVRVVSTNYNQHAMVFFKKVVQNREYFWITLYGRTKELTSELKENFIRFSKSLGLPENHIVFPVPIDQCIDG
Method: as §1, §2, §3

[7] = biological target: T7, human lipocalin 2 (hNGAL) mutein SEQ ID NO: 48 (Homo sapiens, UniProt P80188, A60L/C107S/D67N/D97K/I61A/K154W/K93H/L123Q/L56E/L90R/N116L/Q48H/Q69M/R101V/S125P/S147V/S88E/T165P/W99D/Y120D/Y126E/Y72M); test: SPR (Biacore T200), mutein SEQ ID NO: 48; conditions: 25° C.
T7 construct: made in house; host or cells: E. coli
T7 sequence (P80188 21-198 with the stated changes): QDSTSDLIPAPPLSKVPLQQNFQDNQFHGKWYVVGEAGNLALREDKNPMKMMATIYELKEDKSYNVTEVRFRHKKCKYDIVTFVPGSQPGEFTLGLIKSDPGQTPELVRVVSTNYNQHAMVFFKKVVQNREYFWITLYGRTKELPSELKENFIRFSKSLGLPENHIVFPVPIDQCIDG
Method: as §1, §2, §3

[8] = biological target: T8, human lipocalin 2 (hNGAL) mutein SEQ ID NO: 49 (Homo sapiens, UniProt P80188, A60L/C107S/D65G/D97K/I61A/K154W/K66R/K93H/L123Q/L56E/L90R/N116L/Q48H/Q69M/R101V/S125P/S147V/S88E/W99D/Y120D/Y126E/Y72M); test: SPR (Biacore T200), mutein SEQ ID NO: 49; conditions: 25° C.
T8 construct: made in house; host or cells: E. coli
T8 sequence (P80188 21-198 with the stated changes): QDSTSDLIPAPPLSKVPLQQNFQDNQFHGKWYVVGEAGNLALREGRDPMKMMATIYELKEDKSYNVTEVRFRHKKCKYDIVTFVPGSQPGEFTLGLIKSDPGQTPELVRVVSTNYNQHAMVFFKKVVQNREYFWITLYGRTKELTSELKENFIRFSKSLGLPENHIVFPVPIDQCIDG
Method: as §1, §2, §3

[9] = biological target: T9, human lipocalin 2 (hNGAL) mutein SEQ ID NO: 32 (Homo sapiens, UniProt P80188, A60E/C107S/D97N/E64D/I61V/K145N/K154W/K93N/L123V/L56V/L90R/N116K/N85D/Q48H/Q69G/R101E/R92H/S147K/S88E/W99F/Y120N/Y126M/Y152G/Y72P); test: SPR (Biacore T200), mutein SEQ ID NO: 32; conditions: 25° C.
T9 construct: made in house; host or cells: E. coli
T9 sequence (P80188 21-198 with the stated changes): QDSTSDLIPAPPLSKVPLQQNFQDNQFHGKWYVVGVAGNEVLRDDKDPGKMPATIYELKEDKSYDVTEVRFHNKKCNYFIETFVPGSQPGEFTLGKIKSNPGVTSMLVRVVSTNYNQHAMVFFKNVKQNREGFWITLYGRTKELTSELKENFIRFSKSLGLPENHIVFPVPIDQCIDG
Method: as §4

[10] = biological target: T10, human lipocalin 2 (hNGAL) mutein SEQ ID NO: 33 (Homo sapiens, UniProt P80188, A60E/C107S/D97N/E64D/I61V/K145N/K154W/K93N/L123V/L56V/L90R/N116K/N85Q/Q48H/Q69G/R101E/R92H/S147K/S88E/W99F/Y120N/Y126M/Y152G/Y72P); test: SPR (Biacore T200), mutein SEQ ID NO: 33; conditions: 25° C.
T10 construct: made in house; host or cells: E. coli
T10 sequence (P80188 21-198 with the stated changes): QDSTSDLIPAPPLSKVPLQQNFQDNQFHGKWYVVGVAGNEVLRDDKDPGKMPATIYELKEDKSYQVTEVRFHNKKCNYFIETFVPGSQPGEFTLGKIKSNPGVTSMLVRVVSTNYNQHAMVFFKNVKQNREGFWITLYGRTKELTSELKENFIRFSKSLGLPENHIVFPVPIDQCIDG
Method: as §4

[11] = biological target: negative control lipocalin SEQ ID NO: 64 (Homo sapiens, UniProt P80188, C107S/Q48H); test: SPR (Biacore T200), negative control SEQ ID NO: 64; conditions: 1200 nM
Sequence of negative control lipocalin SEQ ID NO: 64 (P80188 21-198 Q48H/C107S): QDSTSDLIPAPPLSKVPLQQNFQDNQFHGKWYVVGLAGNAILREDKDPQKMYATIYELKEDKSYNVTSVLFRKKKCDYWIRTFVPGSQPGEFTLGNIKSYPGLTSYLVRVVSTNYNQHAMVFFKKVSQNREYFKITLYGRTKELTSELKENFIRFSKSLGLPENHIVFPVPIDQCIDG
Method: as §1, §2
as §3, with “data. […]” for “data.”

Structure (SMILES): CN1[C@@H]([C@H]2CSC(c3ccccc3O)=N2)SC[C@H]1C(=O)O [Pyochelin, pyochelin]
- specificity and crossreactivity (binding) [1]: absence of binding

Structure (SMILES): NC(=O)CCC(=O)Nc1cc2cc([O-])c([O-])cc2[n+]2c1NCC[C@H]2C(=O)N[C@H](CO)C1=NCC[C@@H](C(=O)N[C@@H](CCCN([O-])C=O)C(=O)N[C@@H](CCC(N)=O)C(=O)N[C@H](CCC(N)=O)C(=O)N[C@H](CCCN([O-])C=O)C(=O)NCC(=O)O)N1.[Fe+3] [Pvd III sa (+Fe)]
- Kd [2]: 3.04 nM
- koff [2]: 0.000107 s⁻¹
- kon [2]: 35200 M⁻¹ s⁻¹
- Kd [3]: 2.94 nM
- koff [3]: 8.9e-05 s⁻¹
- kon [3]: 30300 M⁻¹ s⁻¹
- Kd [4]: 3.03 nM
- koff [4]: 9.91e-05 s⁻¹
- kon [4]: 32700 M⁻¹ s⁻¹
- Kd [5]: 1.58 nM
- koff [5]: 6.9e-05 s⁻¹
- kon [5]: 43600 M⁻¹ s⁻¹
- Kd [6]: 0.2 nM
- koff [6]: 2.52e-05 s⁻¹
- kon [6]: 128000 M⁻¹ s⁻¹
- Kd [7]: 0.64 nM
- koff [7]: 9.51e-05 s⁻¹
- kon [7]: 148000 M⁻¹ s⁻¹
- Kd [8]: 0.84 nM
- koff [8]: 0.000112 s⁻¹
- kon [8]: 134000 M⁻¹ s⁻¹

Structure (SMILES): C[C@@H](O)[C@@H](NC(=O)CNC(=O)[C@H](CCCN)NC(=O)[C@@H](CCCN([O-])C=O)NC(=O)[C@@H](CO)NC(=O)[C@@H]1CCNc2c(NC(=O)C(=O)CCC(=O)O)cc3cc([O-])c([O-])cc3[n+]21)C(=O)N[C@@H](CO)C(=O)N[C@H]1CCCN([O-])C1=O.[Fe+3] [Pvd II aKG (+Fe)] ({Butanoyl(2-oxo,4-COOH)}-[X1][dS][dOrn(N5-OH,N5-CHO)][Orn]G[d(aThr)]S-X2)
- Kd [9]: 3.44 nM
- koff [9]: 0.000374 s⁻¹
- kon [9]: 109000 M⁻¹ s⁻¹
- Kd [10]: 4.19 nM
- koff [10]: 0.000416 s⁻¹
- kon [10]: 99300 M⁻¹ s⁻¹
- Kd ([1]; 25° C.): 3.42 nM
- koff ([1]; 25° C.): 0.000149 s⁻¹
- kon ([1]; 25° C.): 43500 M⁻¹ s⁻¹

Structure (SMILES): C[C@@H](O)[C@@H](NC(=O)CNC(=O)[C@H](CCCN)NC(=O)[C@@H](CCCN([O-])C=O)NC(=O)[C@@H](CO)NC(=O)[C@@H]1CCNc2c(NC(=O)CCC(=O)O)cc3cc([O-])c([O-])cc3[n+]21)C(=O)N[C@@H](CO)C(=O)N[C@H]1CCCN([O-])C1=O.[Fe+3] [Pvd II s (+Fe)] (Suc-[X1][dS][dOrn(N5-OH,N5-CHO)][Orn]G[d(aThr)]S-X2)
- absence of binding to negative control [11]: absence of binding

Structure (SMILES): CC(=O)N(O)CCCCCNC(=O)CCC(=O)N(O)CCCCCNC(=O)CCC(=O)N(O)CCCCCN [Desferoxamin, desferoxamine, reference compound]
- specificity and crossreactivity (binding) [1]: absence of binding

Structure (SMILES): C[C@@H](O)[C@@H]1NC(=O)[C@H](CCCN(O)C=O)NC(=O)[C@@H](NC(=O)[C@H](CCCN(O)C=O)NC(=O)[C@@H](CO)NC(=O)[C@H](CCCNC(=N)N)NC(=O)[C@@H](CO)NC(=O)[C@@H]2CCN=C3C(NC(=O)CCC(=O)O)=Cc4cc(O)c(O)cc4N32)CCCCNC(=O)[C@H]([C@@H](C)O)NC1=O.[Fe+3] [Pvd I s (+Fe)] (Suc-[X4][dS]R[dS][X5]K[X5]TT; lactam 6-C)
- absence of binding to negative control [11]: absence of binding

Structure (SMILES): NC(=O)CC[C@H](NC(=O)[C@H](CCCN([O-])C=O)NC(=O)[C@@H]1CCN=C([C@@H](CO)NC(=O)[C@@H]2CCNc3c(NC(=O)C(=O)CCC(=O)O)cc4cc([O-])c([O-])cc4[n+]32)N1)C(=O)N[C@H](CCC(N)=O)C(=O)N[C@H](CCCN([O-])C=O)C(=O)NCC(=O)O.[Fe+3] [Pvd III aKG (+Fe)]
- Kd [2]: 5.29 nM
- koff [2]: 0.000303 s⁻¹
- kon [2]: 57300 M⁻¹ s⁻¹
- Kd [3]: 5.64 nM
- koff [3]: 0.000271 s⁻¹
- kon [3]: 48200 M⁻¹ s⁻¹
- Kd [4]: 6.99 nM
- koff [4]: 0.00033 s⁻¹
- kon [4]: 47300 M⁻¹ s⁻¹
- Kd [5]: 3.15 nM
- koff [5]: 0.000241 s⁻¹
- kon [5]: 76700 M⁻¹ s⁻¹
- Kd [6]: 8.97 nM
- koff [6]: 0.000262 s⁻¹
- kon [6]: 29200 M⁻¹ s⁻¹
- Kd [7]: 5.81 nM
- koff [7]: 0.000158 s⁻¹
- kon [7]: 27200 M⁻¹ s⁻¹
- Kd [8]: 1.53 nM
- koff [8]: 4.29e-05 s⁻¹
- kon [8]: 28100 M⁻¹ s⁻¹
